Calls of active or inactive are those of the source. The calls are words filed in the database; no cut-off is given here.
Legend:
[1] = molecular target: P2Y purinoceptor 12 (Homo sapiens) (UniProt Q9H244); experiment: Antagonist activity at recombinant human Gi/Go-coupled GP2Y12 receptor expressed in CHOK1 cells assessed as inhibition of 2-(Methylthio)ADP-induced inhibition of beta-arrestin recruitment at 10 uM by pathhunter assay; assay type: cell-based; details: CHO-K1
[2] = molecular target: P2Y purinoceptor 6 (Rattus norvegicus) (UniProt Q63371); experiment: (§1) Antagonist activity at rat P2Y6 receptor expressed in human 1321N1 cells assessed as inhibition of UDP-induced intracellular calcium influx at 10 to 100 uM preincubated for 20 mins followed by UDP addition measured at 0.4 secs interval for 60 times by Oregon Green BAPTA-1/AM dye-based fluorescence assay; assay type: functional, cell-based; details: dose 10-100 µM
[3] = molecular target: P2Y purinoceptor 4 (Homo sapiens) (UniProt P51582); experiment: as §1, with “human P2Y4” for “rat P2Y6”, “UTP-induced” for “UDP-induced”, “UTP” for “UDP”; assay type: functional, cell-based; details: dose 10-100 µM
[4] = molecular target: T1, P2Y purinoceptor 14 (Homo sapiens) (UniProt Q15391); experiment: Antagonist activity at recombinant human Gi/Go-coupled GP2Y14 receptor expressed in CHOK1 cells assessed as inhibition of […]-induced inhibition of beta-arrestin recruitment at 10 uM by pathhunter assay; assay type: cell-based
T1 sequence (whole entry): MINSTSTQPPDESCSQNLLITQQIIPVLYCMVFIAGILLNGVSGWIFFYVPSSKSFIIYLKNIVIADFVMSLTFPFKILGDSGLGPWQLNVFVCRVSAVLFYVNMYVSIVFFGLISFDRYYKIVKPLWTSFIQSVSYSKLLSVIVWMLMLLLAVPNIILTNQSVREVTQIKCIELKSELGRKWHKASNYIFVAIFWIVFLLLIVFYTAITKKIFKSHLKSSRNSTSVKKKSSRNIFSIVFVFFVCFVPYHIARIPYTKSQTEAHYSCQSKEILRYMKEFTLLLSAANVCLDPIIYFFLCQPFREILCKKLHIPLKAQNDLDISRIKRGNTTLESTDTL

[5] = molecular target: P2Y purinoceptor 1 (Homo sapiens) (UniProt P47900); experiment: Antagonist activity at human P2Y1 receptor expressed in human 1321N1 cells assessed as inhibition of ADP-induced intracellular calcium influx at 10 uM preincubated for 20 mins followed by ADP addition measured at 0.4 secs interval for 60 times by Oregon Green BAPTA-1/AM dye-based fluorescence assay; assay type: functional, cell-based
Sequence of P2Y purinoceptor 1 (Homo sapiens) (P47900 whole entry): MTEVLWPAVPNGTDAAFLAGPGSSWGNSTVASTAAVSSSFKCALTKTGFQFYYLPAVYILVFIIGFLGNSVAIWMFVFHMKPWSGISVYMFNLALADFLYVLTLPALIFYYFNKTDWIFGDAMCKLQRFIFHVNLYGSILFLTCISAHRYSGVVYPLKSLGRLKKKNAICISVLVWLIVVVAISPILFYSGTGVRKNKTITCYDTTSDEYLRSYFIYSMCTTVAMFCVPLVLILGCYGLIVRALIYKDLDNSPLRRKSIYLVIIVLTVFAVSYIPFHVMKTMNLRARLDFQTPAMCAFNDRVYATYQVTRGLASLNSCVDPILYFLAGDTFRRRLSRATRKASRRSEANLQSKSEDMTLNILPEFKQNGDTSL

Sequence of P2Y purinoceptor 4 (Homo sapiens) (P51582 whole entry): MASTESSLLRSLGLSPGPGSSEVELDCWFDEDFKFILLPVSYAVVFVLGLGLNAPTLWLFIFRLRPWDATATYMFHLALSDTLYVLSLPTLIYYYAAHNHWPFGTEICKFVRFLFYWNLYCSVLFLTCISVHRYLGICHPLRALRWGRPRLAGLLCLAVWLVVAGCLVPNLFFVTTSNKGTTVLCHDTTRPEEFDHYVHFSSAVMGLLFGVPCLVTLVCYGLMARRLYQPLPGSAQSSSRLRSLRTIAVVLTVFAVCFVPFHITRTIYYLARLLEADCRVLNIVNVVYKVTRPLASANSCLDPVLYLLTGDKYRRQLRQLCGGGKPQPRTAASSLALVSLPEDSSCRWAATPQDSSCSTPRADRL
Sequence of P2Y purinoceptor 6 (Rattus norvegicus) (Q63371 whole entry): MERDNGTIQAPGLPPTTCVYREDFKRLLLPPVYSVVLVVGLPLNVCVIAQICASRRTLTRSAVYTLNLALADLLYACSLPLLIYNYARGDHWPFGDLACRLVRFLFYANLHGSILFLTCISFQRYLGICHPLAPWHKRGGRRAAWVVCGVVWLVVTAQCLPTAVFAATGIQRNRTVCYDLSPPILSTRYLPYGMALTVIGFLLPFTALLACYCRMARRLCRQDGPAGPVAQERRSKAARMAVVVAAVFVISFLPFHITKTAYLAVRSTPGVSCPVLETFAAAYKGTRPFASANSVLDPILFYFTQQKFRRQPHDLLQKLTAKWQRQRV
Sequence of P2Y purinoceptor 12 (Homo sapiens) (Q9H244 whole entry): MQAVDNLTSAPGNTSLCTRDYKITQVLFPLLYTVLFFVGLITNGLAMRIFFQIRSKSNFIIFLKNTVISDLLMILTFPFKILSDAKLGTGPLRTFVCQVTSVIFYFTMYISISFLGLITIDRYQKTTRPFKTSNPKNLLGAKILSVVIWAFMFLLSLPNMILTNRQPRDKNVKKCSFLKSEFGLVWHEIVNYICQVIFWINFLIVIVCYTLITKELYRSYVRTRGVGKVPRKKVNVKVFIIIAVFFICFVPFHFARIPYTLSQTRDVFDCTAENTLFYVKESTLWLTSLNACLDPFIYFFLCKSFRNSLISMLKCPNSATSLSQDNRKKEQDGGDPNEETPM

Structure (SMILES)	inhibition [1]	inhibition [2]	inhibition [3]	inhibition [4]	inhibition [5]
CC(=O)c1cccc(C(=O)Nc2ccc(S(=O)(=O)Oc3cccc([N+](=O)[O-])c3)cc2)c1	inactive	inactive	inactive	inactive	inactive
Cc1cccc(C(=O)Nc2ccc(NC(=O)Nc3cccc(C(=O)O)c3)cc2)c1	inactive	inactive	inactive	inactive	inactive
Cc1cccc(NC(=O)c2ccc(NC(=O)c3cccc([N+](=O)[O-])c3)cc2)c1	inactive	inactive	inactive	inactive	inactive
O=C(Nc1ccc(S(=O)(=O)Oc2cccc([N+](=O)[O-])c2)cc1)c1cccc(C(F)(F)F)c1	inactive	inactive	inactive	inactive	inactive
COC(=O)c1cccc(NC(=O)Nc2cccc(C(=O)Nc3cccc(C)c3)c2)c1	inactive	inactive	inactive	inactive	inactive
COC(=O)c1cccc(NC(=O)Nc2cccc(NC(=O)c3cccc(C)c3)c2)c1	inactive	inactive	inactive	inactive	inactive
Cc1ccc(C(=O)Nc2ccc(S(=O)(=O)Nc3cccc([N+](=O)[O-])c3)cc2)cc1	inactive	inactive	inactive	inactive	inactive
O=C(Nc1ccc(S(=O)(=O)Oc2cccc([N+](=O)[O-])c2)cc1)c1ccc(Cl)cc1	inactive	inactive	inactive	inactive	inactive
COC(=O)c1cccc(NC(=O)Nc2ccc(NC(=O)c3cccc(C)c3)cc2)c1	inactive	inactive	inactive	inactive	inactive
O=C(Nc1ccc(S(=O)(=O)Oc2cccc([N+](=O)[O-])c2)cc1)c1ccc(Cl)c(Cl)c1	inactive	inactive	inactive	inactive	inactive

Further lines, results first:

inhibition [1]	inhibition [2]	inhibition [3]	inhibition [4]	inhibition [5]	Structure (SMILES)
inactive	inactive	inactive	inactive	inactive	CCC(=O)c1cccc(C(=O)Nc2ccc(S(=O)(=O)Oc3cccc([N+](=O)[O-])c3)cc2)c1
inactive	inactive	inactive	inactive	inactive	COc1cccc(C(=O)Nc2ccc(S(=O)(=O)Oc3cccc([N+](=O)[O-])c3)cc2)c1
inactive	inactive	inactive	inactive	inactive	O=C(Nc1ccc(S(=O)(=O)Oc2cccc([N+](=O)[O-])c2)cc1)c1ccccc1
inactive	inactive	inactive	inactive	inactive	Cc1cccc(C(=O)Nc2ccc(S(=O)(=O)Nc3cccc([N+](=O)[O-])c3)cc2)c1
inactive	inactive	inactive	inactive	inactive	O=C(Nc1cccc(S(=O)(=O)Oc2cccc([N+](=O)[O-])c2)c1)c1cccc(Cl)c1
inactive	inactive	inactive	inactive	inactive	Cc1cccc(C(=O)Nc2cccc(NC(=O)c3cccc([N+](=O)[O-])c3)c2)c1

Reference: ChEMBL document CHEMBL4715830, “Design, synthesis and biological evaluation of suramin-derived dual antagonists of the proinflammatory G protein-coupled receptors P2Y and GPR17” (Eur J Med Chem, 2020)
